Each structure is given as a SMILES string. Where two headings read alike, the source gives them in different places.

By EC50 is commonly meant the concentration at which the effect is half-maximal. High values mean a need for much substance, low ones an effect from little substance.

The test concerns the target T1, human FXR (NR1H4) (Homo sapiens, UniProt Q96RI1).
T1 construct: host or cells: CHO (Chinese hamster ovary) reporter cells
T1 sequence (Q96RI1 1-486): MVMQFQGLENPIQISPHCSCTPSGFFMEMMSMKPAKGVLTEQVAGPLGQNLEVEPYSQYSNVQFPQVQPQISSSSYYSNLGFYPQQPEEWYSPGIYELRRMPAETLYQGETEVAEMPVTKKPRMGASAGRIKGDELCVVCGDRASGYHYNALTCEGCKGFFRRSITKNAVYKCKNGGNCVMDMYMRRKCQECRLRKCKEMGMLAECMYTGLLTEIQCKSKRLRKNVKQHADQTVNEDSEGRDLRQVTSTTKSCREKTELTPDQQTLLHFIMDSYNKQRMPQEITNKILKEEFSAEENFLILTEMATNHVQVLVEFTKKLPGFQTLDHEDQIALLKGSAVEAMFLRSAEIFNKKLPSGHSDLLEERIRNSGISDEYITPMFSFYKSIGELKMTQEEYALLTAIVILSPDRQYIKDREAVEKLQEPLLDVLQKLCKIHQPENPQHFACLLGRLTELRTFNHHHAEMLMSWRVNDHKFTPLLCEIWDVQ
Description: Human FXR (NR1H4) Assay (Gal4 promoter driven luciferase reporter, CHO cells). In kind it is cell-based. From the text: Assays Human FXR (NR1H4) Assay
Determination of a ligand mediated Gal4 promoter driven transactivation to quantify ligand binding mediated activation of FXR. FXR Reporter Assay kit purchased from Indigo Bioscience (Catalogue number: IB00601) to determine the potency and efficacy of compound developed by Enanta that can induce FXR activation. The principle application of this reporter assay system is to quantify functional activity of human FXR. The assay utilizes non-human mammalian cells, CHO (Chinese hamster ovary) cells engineered to express human NR1H4 protein (referred to as FXR). Reporter cells also incorporate the cDNA encoding beetle luciferase which catalyzes the substrates and yields photon emission. Luminescence intensity of the reaction is quantified using a plate-reading luminometer, Envision. Reporter Cells include the luciferase reporter gene functionally linked to an FXR responsive promoter. Thus, quantifying changes in luciferase expression in the treated reporter cells provides a sensitive surrogate measure of the changes in FXR activity. […] The assay is according to the manufacturer's instructions. In brief, the assay was performed in white, 96 well plates using final volume of 100 ul containing cells with different doses of compounds. Retrieve Reporter Cells from −80° C. storage. Perform a rapid thaw of the frozen cells by transferring a 10 ml volume of 37° C. cell recovery medium into the tube of frozen cells. Recap the tube of Reporter Cells and immediately place it in a 37° C. water bath for 5-10 minutes. Retrieve the tube of Reporter Cell Suspension from the water bath. Sanitize the outside surface of the tube with a 70% alcohol swab, and then transfer it into the cell culture hood. Dispense 90 μl of cell suspension into each well of the 96-well Assay Plate. Transfer the plate into 37° C. incubator, allowing the cells adherent to the bottom of the well. Dilute compounds in Dilution Plate (DP), and administrate to cells at Assay Plate (AP). DMSO content of the samples was kept at 0.2%. Cells were incubated for additional 22 hours before luciferase activities were measured. Thirty minutes before intending to quantify FXR activity, remove Detection Substrate and Detection Buffer from the refrigerator and place them in a low-light area so that they may equilibrate to room temperature. Remove the plate's lid and discard all media contents by ejecting it into an appropriate waste container. Gently tap the inverted plate onto a clean absorbent paper towel to remove residual droplets. Cells will remain tightly adhered to well bottoms. Add 100 μl of luciferase detection reagent to each well of the assay plate. Allow the assay plate to rest at room temperature for at least 5 minutes following the addition of LDR. Set the instrument (Envision) to perform a single 5 second “plate shake” prior to reading the first assay well. Read time may be 0.5 second (500 mSec) per well.
(In a reporter assay the amount or activity of a reporter protein is the signal.)

The mark [1] stands for this setting: efficacy normalized to CDCA set as 100%.

Consider `CC[C@H]1[C@@H](O)[C@@H]2[C@H](CC[C@]3(C)[C@@H]([C@H](C)CCC(=O)N(O)Cc4ccccc4)CC[C@@H]23)[C@@]2(C)CC[C@@H](O)C[C@@H]12` [Example 4], for which the EC50 was in the range of 1000 to 10000 nM. For the same compound, the “Efficacy (%)” value under setting [1] was found to be 270%. In the same order, the values of `CC[C@H]1[C@@H](O)[C@@H]2[C@H](CC[C@]3(C)[C@@H]([C@H](C)CC=CCS(N)(=O)=O)CC[C@@H]23)[C@@]2(C)CC[C@@H](O)C[C@@H]12` [Example 14] are 100 to 1000 nM and 167%.

On to `CCOP(=O)(CCC[C@@H](C)[C@H]1CC[C@H]2[C@@H]3[C@H](O)[C@H](CC)[C@@H]4C[C@H](O)CC[C@]4(C)[C@H]3CC[C@]12C)c1ccccc1` (stereo partly drawn) [Example 28], for which the EC50 lay within 100 to 1000 nM and the “Efficacy (%)” value was 265%. As for `CCOP(=O)(CC[C@@H](C)[C@H]1CC[C@H]2[C@@H]3[C@H](O)[C@H](CC)[C@@H]4C[C@H](O)CC[C@]4(C)[C@H]3CC[C@]12C)c1ccccc1` (stereo partly drawn) [Example 29], the EC50 was in the range of 1000 to 10000 nM and the “Efficacy (%)” value stood at 49. %.

`CC[C@H]1[C@@H](O)[C@@H]2[C@H](CC[C@]3(C)[C@@H]([C@H](C)CCOP(=O)(O)c4ccccc4)CC[C@@H]23)[C@@]2(C)CC[C@@H](O)C[C@@H]12` [Example 24] returned an EC50 of 1000 to 10000 nM. Further, the “Efficacy (%)” value under setting [1] is recorded as 75%. The corresponding values for `C[C@H](CCC(=O)N(O)C1CCCCC1)[C@H]1CC[C@H]2[C@@H]3[C@H](O)C[C@@H]4C[C@H](O)CC[C@]4(C)[C@H]3CC[C@]12C` [Example 3] are over 10000 nM and 2%. In the same order, the values of `CC[C@H]1[C@@H](O)[C@@H]2[C@H](CC[C@]3(C)[C@@H]([C@H](C)CCCS(=O)(=O)[O-])CC[C@@H]23)[C@@]2(C)CC[C@@H](O)C[C@@H]12.[Na+]` [Example 10] are 1000 to 10000 nM and 4%. With `CC[C@H]1[C@@H](O)[C@@H]2[C@H](CC[C@]3(C)[C@@H]([C@H](C)CC=CS(N)(=O)=O)CC[C@@H]23)[C@@]2(C)CC[C@@H](O)C[C@@H]12` [Example 17], the concentration for a half-maximal effect (EC50) was 100 to 1000 nM. Further, the “Efficacy (%)” value under setting [1] is listed as 147%. `CC[C@H]1[C@@H](O)[C@@H]2[C@H](CC[C@]3(C)[C@@H]([C@H](C)CCCS(N)(=O)=O)CC[C@@H]23)[C@@]2(C)CC[C@@H](O)C[C@@H]12` [Example 23] showed an EC50 of 1000 to 10000 nM. The “Efficacy (%)” value under setting [1] is 202%.

The compound `CC[C@H]1[C@@H](O)[C@@H]2[C@H](CC[C@]3(C)[C@@H]([C@H](C)CCS(N)(=O)=O)CC[C@@H]23)[C@@]2(C)CC[C@@H](O)C[C@@H]12` [Example 13] displayed an EC50 of 1000 to 10000 nM. In addition, the “Efficacy (%)” value under setting [1] came to 118%. As for `CC[C@H]1[C@@H](O)[C@@H]2[C@H](CC[C@]3(C)[C@@H]([C@H](C)CCS(=O)(=O)NC(C)=O)CC[C@@H]23)[C@@]2(C)CC[C@@H](O)C[C@@H]12` [Example 21], the EC50 is 1000 to 10000 nM. In addition, the “Efficacy (%)” value under setting [1] was 74%.

Regarding `CC[C@H]1[C@@H](O)[C@@H]2[C@H](CC[C@]3(C)[C@@H]([C@H](C)CCS(=O)(=O)N(Cc4ccc(OC)cc4)Cc4ccc(OC)cc4)CC[C@@H]23)[C@@]2(C)CC[C@@H](O)C[C@@H]12` [Example 12], the EC50 was in the range of 1000 to 10000 nM. Also, the “Efficacy (%)” value under setting [1] was 1%. For `CC[C@H]1[C@@H](O)[C@@H]2[C@H](CC[C@]3(C)[C@@H]([C@H](C)/C=C/S(=O)(=O)NCc4ccc(OC)cc4)CC[C@@H]23)[C@@]2(C)CC[C@@H](O)C[C@@H]12` [Example 18], the EC50 is 1000 to 10000 nM. Also, the “Efficacy (%)” value under setting [1] was found to be 16%.

As for `CC[C@H]1[C@@H](O)[C@@H]2[C@H](CC[C@]3(C)[C@@H]([C@H](C)CCCCS(N)(=O)=O)CC[C@@H]23)[C@@]2(C)CC[C@@H](O)C[C@@H]12` [Example 15], the EC50 fell in the range of 100 to 1000 nM. In addition, the “Efficacy (%)” value under setting [1] is listed as 195%. Regarding `CC[C@H]1[C@@H](O)[C@@H]2[C@H](CC[C@]3(C)[C@@H]([C@H](C)CCCOP(=O)(Oc4ccccc4)c4ccccc4)CC[C@@H]23)[C@@]2(C)CC[C@@H](O)C[C@@H]12` (stereo partly drawn) [Example 26], the EC50 lay within 1000 to 10000 nM and the “Efficacy (%)” value is listed as 129%. In turn, `CC[C@H]1[C@@H](O)[C@@H]2[C@H](CC[C@]3(C)[C@@H]([C@H](C)CCCc4cc(F)c(O)c(F)c4)CC[C@@H]23)[C@@]2(C)CC[C@@H](O)C[C@@H]12` [Example 9] registered an EC50 of 1000 to 10000 nM. Besides, the “Efficacy (%)” value under setting [1] is 271%.

As to `CC[C@H]1[C@@H](O)[C@@H]2[C@H](CC[C@]3(C)[C@@H]([C@H](C)CCS(=O)(=O)NCc4ccc(OC)cc4)CC[C@@H]23)[C@@]2(C)CC[C@@H](O)C[C@@H]12` [Example 20], the EC50 is over 10000 nM. Besides, the “Efficacy (%)” value under setting [1] worked out at 60%. In the same order, the values of `CC[C@H]1[C@@H](O)[C@@H]2[C@H](CC[C@]3(C)[C@@H]([C@H](C)CCS(=O)(=O)NC(=O)c4ccccc4)CC[C@@H]23)[C@@]2(C)CC[C@@H](O)C[C@@H]12` [Example 22] are 1000 to 10000 nM and 249%.

The compound `CC(C)N(O)C(=O)CC[C@@H](C)[C@H]1CC[C@H]2[C@@H]3[C@H](O)C[C@@H]4C[C@H](O)CC[C@]4(C)[C@H]3CC[C@]12C` [Example 2] had an EC50 of over 10000 nM. The “Efficacy (%)” value under setting [1] turned out to be 13%. For the compound `CC[C@H]1[C@@H](O)[C@@H]2[C@H](CC[C@]3(C)[C@@H]([C@H](C)CCS(=O)(=O)[O-])CC[C@@H]23)[C@@]2(C)CC[C@@H](O)C[C@@H]12.[Na+]` [Example 11], the “Efficacy (%)” value is listed as 1%.

As to `CCOP(=O)(CCC[C@@H](C)[C@H]1CC[C@H]2[C@@H]3[C@H](O)[C@H](CC)[C@@H]4C[C@H](O)CC[C@]4(C)[C@H]3CC[C@]12C)OCC` [Example 27], the EC50 lay within 1000 to 10000 nM and the “Efficacy (%)” value is reported as 246%.

Regarding `CC[C@H]1[C@@H](O)[C@@H]2[C@H](CC[C@]3(C)[C@@H]([C@H](C)CCCCS(=O)(=O)N(C)Cc4ccccc4)CC[C@@H]23)[C@@]2(C)CC[C@@H](O)C[C@@H]12` [Example 16], the EC50 lay within 1000 to 10000 nM. For the same compound, under setting [1], the “Efficacy (%)” value was 97%. In turn, `CC[C@H]1[C@@H](O)[C@@H]2[C@H](CC[C@]3(C)[C@@H]([C@H](C)/C=C/S(N)(=O)=O)CC[C@@H]23)[C@@]2(C)CC[C@@H](O)C[C@@H]12` [Example 19] showed an EC50 of 1000 to 10000 nM. For the same compound, under setting [1], the “Efficacy (%)” value was found to be 3%.

The record behind these values is patent publication US10519191B2, “Bile acid analogs as FXR/TGR5 agonists and methods of use thereof” (Enanta Pharmaceuticals, Inc., priority 2014, dated 2019).
